Legend:
[1] = tested on: TREU 667 strain of T. b. brucei; test: Chronic CNS Model; type: in vivo, mice
Method: Mice were infected with 10,000 parasites of the TREU 667 strain of T. b. brucei. Twenty one days post-infection mice were treated with 50 mg/kg of the compound BID for 7 days intraperitoneally (IP). Positive control mice were treated with Berenil on Day 4 post-infection. Negative control mice were treated with Berenil on Day 21. Since Berenil is not able to penetrate the CNS, mice treated at Day 21 are not able to cure the infection. Starting 1 week after the end of treatment, mice are monitored for parasitemia and sacrificed if parasites are detected in the blood. Mice that survive 6 months are considered “cured.”

[2] = tested on: LAB 110 EATRO strain of T. b. brucei; test: Acute Murine Model A; type: in vivo, Swiss Webster mice; conditions: for T. brucei Minimum Effective Dose: bid × 4 days; for mice parasite free: ip, BID for 4 days
Method: Female Swiss Webster mice were inoculated with 250,000 parasites of the LAB 110 EATRO strain of T. b. brucei. 24 hrs post-infection, treatment was initiated BID for 4 days with 20 mg/kg/dose (40 mg/kg/day) intraperitoneally (IP) or orally (PO), 5 mg/kg BID or 10 mg/kg BID orally (PO). N=3 mice/group. Mice were monitored for 30 days for survival. Pentamidine at 2 mg/kg IP was used as the positive control. After 10 days, 0% of the untreated mice were parasite free. After 10 days, 100% of mice treated with 20 mg/kg, ip, BID of 6-(4-chlorophenylsulfinyl)benzo[c][1,2]oxaborol-1(3H)-ol were parasite free. After 30 days, 100% of mice treated with 10 mg/kg, ip, BID of N-(1-hydroxy-1,3-dihydrobenzo[c][1,2]oxaborol-6-yl)-2-(trifluoromethyl)benzamide were parasite free.

[3] = In vitro metabolism, mouse/human liver microsomes; type: in vitro ADME; conditions: read-out: in vitro metabolism T1/2 (Mouse/human liver microsomes)
[4] = tested on: T. b. brucei or T. b. rhodesiense; test: Acute Murine Model B; type: in vivo, BALB/C mice; conditions: after 55 days; 50 mg/kg BID IP for 5 days
Method: Female BALB/C mice were inoculated with 600 parasites of T. b. brucei or 10^4 parasites of T. b. rhodesiense. 24 hrs post-infection, treatment with 6-(4-chlorophenylsulfinyl)benzo[c][1,2]oxaborol-1(3H)-ol was initiated BID for 5 days at 50 mg/kg BID intraperitoneally (IP). Mice were monitored for 40-60 days for survival. After 10 days, 20% of the untreated mice were parasite free and at 20 days, 0% of the untreated mice were parasite free. After 55 days, 100% of mice treated with 6-(4-chlorophenylsulfinyl)benzo[c][1,2]oxaborol-1(3H)-ol were parasite free.

[5] = tested on: cytochrome P450 enzyme (CP1A2, 2C9, 2D6, 3A4, CYP2C19); test: Cytochrome P450 inhibition; type: in vitro ADME; conditions: CP1A2, 2C9, 2D6 and 3A4
[6] = tested on: L. infantum MHOM/MA(BE)/67; test: Leishmania infantum macrophage screening assay; type: cell-based; conditions: 120 h, primary screen, reference drugs, primary peritoneal mouse macrophages, 5 days incubation
Method: Parasite and cell cultures. Two Leishmania species (L. infantum MHOM/MA(BE)/67 and L. donovani MHOM/ET/67/L82) were used. The strains were maintained in the Golden Hamster (Mesocricetus auratus). Amastigotes were collected from the spleen of an infected donor hamster using three centrifugation purification steps (300 rpm, keeping the supernatant, 2200 rpm, keeping the supernatants and 3500 rpm, keeping the pellet) and spleen parasite burdens were assessed using the Stauber technique (Stauber L A., Exp Parasitol. 18: 1-11 (1966)). Primary peritoneal mouse macrophages were used as host cell and were collected 2 days after peritoneal stimulation with a 2% potato starch suspension. […]
Assays were performed in 96-well microtiter plates, each well contained 10 μl of the compound dilutions together with 190 μl of macrophage/parasite inoculum (3×10^3 cells+4.5×10^5 parasites/well). […] After 5 days incubation, parasite burdens (mean number of amastigotes/macrophage) were microscopically assessed after staining the cells with a 10% Giemsa solution. The results were expressed as % reduction in parasite burden compared to untreated control wells and an IC50 (50% inhibitory concentration) was calculated. […]
Leishmania infantum MHOM/MA(BE)/67 and L. donovani MHOM/ET/67/L82 strains were used and the IC50-values were determined using an extended dose range (2-fold compound dilutions). […]

[7] = In vitro metabolism, mouse S9; type: in vitro ADME; conditions: S9 fraction, read-out: in vitro metabolism T1/2 (Mouse S9)
P-gp transporter = P-gp transporter (Homo sapiens, UniProt P08183); test: P-gp transporter substrate assessment; type: in vitro ADME
P-gp transporter, sequence (P08183 whole entry): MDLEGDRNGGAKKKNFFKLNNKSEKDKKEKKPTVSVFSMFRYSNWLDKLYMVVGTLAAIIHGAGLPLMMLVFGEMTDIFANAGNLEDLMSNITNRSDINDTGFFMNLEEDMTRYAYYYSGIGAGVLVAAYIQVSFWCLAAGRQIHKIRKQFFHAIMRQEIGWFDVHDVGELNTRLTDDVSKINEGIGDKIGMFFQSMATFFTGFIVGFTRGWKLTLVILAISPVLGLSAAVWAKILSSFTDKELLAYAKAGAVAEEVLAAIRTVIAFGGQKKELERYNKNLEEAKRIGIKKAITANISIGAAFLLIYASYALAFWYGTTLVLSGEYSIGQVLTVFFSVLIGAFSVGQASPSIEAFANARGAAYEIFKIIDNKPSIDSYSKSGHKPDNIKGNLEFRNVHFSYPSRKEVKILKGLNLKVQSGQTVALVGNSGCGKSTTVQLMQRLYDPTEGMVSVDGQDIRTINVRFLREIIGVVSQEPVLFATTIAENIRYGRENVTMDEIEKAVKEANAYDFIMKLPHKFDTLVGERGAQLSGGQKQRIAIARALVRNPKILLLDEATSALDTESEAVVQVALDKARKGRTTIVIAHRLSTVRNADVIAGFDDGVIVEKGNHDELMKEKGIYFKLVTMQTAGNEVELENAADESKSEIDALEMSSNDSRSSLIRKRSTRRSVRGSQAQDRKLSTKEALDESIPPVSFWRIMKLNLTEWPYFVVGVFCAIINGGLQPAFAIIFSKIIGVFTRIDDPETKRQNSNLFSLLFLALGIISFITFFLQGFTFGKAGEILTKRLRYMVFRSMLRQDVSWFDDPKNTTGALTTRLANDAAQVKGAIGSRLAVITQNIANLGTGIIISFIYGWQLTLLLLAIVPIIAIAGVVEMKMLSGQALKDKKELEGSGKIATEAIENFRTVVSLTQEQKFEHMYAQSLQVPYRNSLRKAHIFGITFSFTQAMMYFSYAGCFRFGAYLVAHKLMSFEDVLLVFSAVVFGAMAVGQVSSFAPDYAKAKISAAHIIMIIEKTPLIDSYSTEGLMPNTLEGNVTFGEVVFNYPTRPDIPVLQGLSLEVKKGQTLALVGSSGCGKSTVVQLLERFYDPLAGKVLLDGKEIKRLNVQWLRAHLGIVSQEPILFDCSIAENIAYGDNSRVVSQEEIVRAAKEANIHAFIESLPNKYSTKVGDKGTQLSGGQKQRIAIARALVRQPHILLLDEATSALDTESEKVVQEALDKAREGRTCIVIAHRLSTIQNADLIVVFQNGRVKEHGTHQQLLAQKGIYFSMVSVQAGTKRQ

In the case of O=C(Nc1ccc2c(c1)B(O)OC2)c1ccccc1Cl [H7, 2-Chloro-N-(1-hydroxy-1,3-dihydro-benzo[c][1,2]oxaborol-6-yl)-benzamide], the “mice parasite free for at least 100 days” value ([1]; additional results) is reported as 100% and the “T. brucei Minimum Effective Dose” value ([2]; route po) is reported as 10 mg/kg, bid × 4 days.
For [O-][S+](c1ccc(Cl)cc1)c1ccc2c(c1)B(O)OC2 (stereo not shown) [6-(4-chlorophenylsulfinyl)benzo[c][1,2]oxaborol-1(3H)-ol], the half-life [3] was > 5.83 h, the mice parasite free [4] was 100% and the mice parasite free ([2]; after 10 days, 20 mg/kg) was 100%. The “inhibition of a cytochrome P450 enzyme” value [5] was “does not inhibit”.
In the case of O=C(Nc1ccc2c(c1)B(O)OC2)c1ccc(F)cc1C(F)(F)F [H19, 4-Fluoro-N-(1-hydroxy-1,3-dihydro-benzo[c][1,2]oxaborol-6-yl)-2-trifluoromethyl-benzamide], the “mice parasite free for at least 100 days” value ([1]; additional results) is reported as 100% and the “T. brucei Minimum Effective Dose” value ([2]; route po) is reported as 5 mg/kg, bid × 4 days.
For CCCCCCCCCCCCCCCCOP(=O)([O-])OCC[N+](C)(C)C [miltefosin], the IC50 [6] was 4.3 µM.
With O=C(Nc1ccc2c(c1)B(O)OC2)c1ccccc1C(F)(F)F [N-(1-hydroxy-1,3-dihydrobenzo[c][1,2]oxaborol-6-yl)-2-(trifluoromethyl)benzamide] the half-life [3] was 5.67 to 6 h, the “mice with absence of blood parasites through Day 91” value ([1]; 50 mg/kg BID for 7 days IP, starting at Day 21 post-infection) was 70% and the mice parasite free ([2]; after 30 days, 10 mg/kg) was 100%. For the same compound, the half-life [7] was 3.33 to 3.75 h, the “substrate for the P-gp transporter” value (P-gp transporter) was “not a substrate” and the “inhibition of a cytochrome P450 enzyme” value [5] was “does not inhibit”.
With O=C(Nc1ccc2c(c1)B(O)OC2)c1cc(F)ccc1C(F)(F)F [H17, 5-Fluoro-N-(1-hydroxy-1,3-dihydro-benzo[c][1,2]oxaborol-6-yl)-2-trifluoromethyl-benzamide] the “mice parasite free for at least 60 days” value ([1]; additional results) was 100% and the “T. brucei Minimum Effective Dose” value ([2]; route po) was 5 mg/kg, bid × 4 days.
In the case of N=C(N)c1ccc(/N=N/Nc2ccc(C(=N)N)cc2)cc1 [Diminazene, reference compound], the “day by which all animals relapsed to exhibit blood parasitemia” value ([1]; treated on Day 21 post-infection) is reported as ≤ 53 days.
For O=C(Nc1ccc2c(c1)B(O)OC2)c1ccccc1C(F)(F)F [H1, N-(1-hydroxy-1,3-dihydrobenzo[c][1,2]oxaborol-6-yl)-2-(trifluoromethyl)benzamide], the “T. brucei Minimum Effective Dose” value ([2]; route ip) was 10 mg/kg, bid × 4 days.

Source: patent US9493489B2, “Boron-containing small molecules as anti-protozoal agents” (Anacor Pharmaceuticals, Inc., priority 2008, dated 2016)
